Consider 16 compounds from BindingDB's records for patent US10508109 (ONCOTHERAPY SCIENCE, INC., 2019).

A word on the IC50: it is the concentration that gives 50% inhibition. Lower therefore signals greater potency in that assay.

Histone-lysine N-methyltransferase SUV39H2, sequence (Q9H5I1 whole entry): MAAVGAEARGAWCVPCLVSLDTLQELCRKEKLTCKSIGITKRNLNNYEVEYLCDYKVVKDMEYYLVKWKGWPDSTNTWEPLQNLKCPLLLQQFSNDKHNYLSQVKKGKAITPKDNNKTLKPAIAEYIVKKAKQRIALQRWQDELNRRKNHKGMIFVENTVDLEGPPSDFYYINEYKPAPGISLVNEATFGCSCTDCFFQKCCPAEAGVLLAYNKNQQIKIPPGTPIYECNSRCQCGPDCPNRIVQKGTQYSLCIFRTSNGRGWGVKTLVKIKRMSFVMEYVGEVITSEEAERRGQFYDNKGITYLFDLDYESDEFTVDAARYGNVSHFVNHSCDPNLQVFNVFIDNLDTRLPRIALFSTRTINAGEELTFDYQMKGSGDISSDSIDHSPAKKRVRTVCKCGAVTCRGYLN

The test concerns the target Histone-lysine N-methyltransferase SUV39H2 (Human, UniProt Q9H5I1). Kind of test: Suv 39H2 Assay. On the procedure: Assay buffer (4 μL) was added into all the wells, including test compound and control wells (except for Sinefungin control wells), using the Multidrop Combi. The plate was centrifuged at 1000 rpm for 1 min. […] SUV39H2 (8 μL, final conc: optimized for each lot of the enzyme based on specific activity) was added by using the Multidrop Combi. The assay plate was centrifuged at 1000 rpm for 1 min. Assay buffer was used as background control, and incubated at room temperature for 3 hours. The reaction was stopped with 20 μL of 2.5 mg/mL Streptavidin SPA beads (final conc. 50 μg/well) in buffer using the Multidrop Combi and centrifuged for 1 min. The plate was loaded into the Trilux-Microbeta counter and a delayed read of 10 hours was made. The radioactive signal was measured at 1 min/well. Sinefungin and the internal standard compound were used as tool compounds to determine assay performance.
As for `COc1cc(CO)c(-c2cn3ccc(N4CCN(CCNC(=O)OC(C)(C)C)CC4)cc3n2)cc1Cl` [US10508109, Example 28], the 50% inhibitory concentration (IC50) amounted to 21 nM.

As to `COc1cc(CO)c(-c2cn3ccc(N4CCC(NC(C)=O)C4)cc3n2)cc1Cl` (stereo unspecified) [US10508109, Example 37], 4.35 nM corresponded to half-maximal inhibition (IC50). This IC50 is about 4.8-fold lower than that of the compound before.

For `COc1cc(CO)c(-c2cn3ccc(N4CCC(NC(N)=O)C4)cc3n2)cc1Cl` (stereo unspecified) [US10508109, Example 38], the IC50 was 4.11 nM.

`COc1cc(CO)c(-c2cn3ccc(N4CCC(N)CC4)nc3n2)cc1Cl` [US10508109, Example 42]: the IC50 turned out to be 79 nM.

`COc1cc(CO)c(-c2cn3ccc(N4CCN(CCO)CC4)cc3n2)cc1Cl` [US10508109, Example 43] gave a half-inhibitory concentration (IC50) of 8.54 nM. This IC50 is about 9.3-fold lower than that of the compound before.

As to `COc1cc(CO)c(-c2cn3ccc(N4CC[C@H](N)C4)cc3n2)cc1Cl` [US10508109, Example 47], 8.29 nM corresponded to half-maximal inhibition (IC50).

In the case of `COc1cc(CO)c(-c2cn3ccc(N(C)CCNC(=O)OC(C)(C)C)cc3n2)cc1Cl` [US10508109, Example 48], the half-maximal inhibitory concentration (IC50) is 12.4 nM.

In turn, `COc1cc(CO)c(-c2cn3ccc(N4CCC(NC(=O)CCNC(=O)OC(C)(C)C)C4)nc3n2)cc1Br` (stereo unspecified) [US10508109, Example 65] registered an IC50 of 14 nM.

On to `COc1cc(CO)c(-c2cn3ccc(C4=CCN(CCN5CCCCC5)CC4)cc3n2)cc1Cl` [US10508109, Example 147], for which the 50% inhibitory concentration (IC50) was determined as 29.5 nM.

In the case of `CCCS(=O)(=O)NC1CCN(c2ccn3cc(-c4cc(Cl)c(OC)cc4CO)nc3c2)CC1` [US10508109, Example 174], the IC50 was determined as 10.4 nM.

In the case of `COc1cc(CO)c(-c2cn3ccc(N4CCN(S(=O)(=O)C(C)C)CC4)cc3n2)cc1Cl` [US10508109, Example 178], the half-inhibitory concentration (IC50) is 14.3 nM.

`COc1cc(CO)c(-c2cn3ccc(N4CCN(S(=O)(=O)Cc5ccccc5)CC4)cc3n2)cc1Cl` [US10508109, Example 179]: the midpoint of inhibition, the IC50, lay at 32.2 nM. This IC50 lies about 2.3-fold higher than the previous one.

With `COc1cc(CO)c(-c2cn3ccc(N4CCC(NS(=O)(=O)N(C)C)CC4)cc3n2)cc1Cl` [US10508109, Example 181], the half-inhibitory concentration (IC50) turned out to be 13.9 nM.

For the compound `COc1cc(CO)c(-c2cn3ccc(N4CCC(N5CCCS5(=O)=O)CC4)cc3n2)cc1Cl` [US10508109, Example 182], the concentration for half-maximal inhibition (IC50) stood at 6.97 nM.

For the compound `COc1cc(CO)c(-c2cn3ccc(N4CCN(P(=O)(CO)OC)CC4)cc3n2)cc1Cl` (stereo unspecified) [US10508109, Example 203], half-maximal inhibition (IC50) required 1.77 nM.

The compound `COc1cc(CO)c(-c2cn3ccc(OC4CCN(S(=O)(=O)c5cccs5)CC4)cc3n2)cc1Cl` [US10508109, Example 280] gave a 50% inhibitory concentration (IC50) of 71.1 nM.
